Results filed as inconclusive are left out.
System: intracellular Trypanosoma cruzi in host cells, plate reader
Assay: intracellular Trypanosoma cruzi inhibitors in host cells – cell-based, plate reader, cherry-pick samples, set 3, dose response (AID 651818)

In the case of `C[C@@H]1CN([C@@H](C)CO)C(=O)c2cccc(NC(=O)c3ccncc3)c2O[C@H]1CN(C)Cc1ccc(Oc2ccccc2)cc1`, the AC50 is reported as < 75 nM.
